Here are results for 5 compounds from PubChem BioAssay AID1745844 (Carcinogenic Potency Database (CPDB), 2022).

Structures are written as SMILES. Active and inactive are the calls of the source. No rule for the calls is given here.

The data set concerns rodent lifetime carcinogenesis bioassay, tumor incidence TD50. Kind of data set: chronic cancer bioassays in animals – CPDB, compiled studies (AID 1745844).
Where [1] appears, read: mouse, strain B6C3F1, females, in feed, site: any site (literature study), lesion: several types, types named in the paper, dosed 103 weeks, study length 104 weeks.

`Nc1ccc(N)cc1`: the TD50 is 1500 mg/kg/day (inactive) under setting [1]; 1370 mg/kg/day (mouse, strain B6C3F1, females, in feed, site: liver, lesion: hepatocellular adenoma + hepatocellular carcinoma + neoplastic nodule, dosed 103 weeks, study length 104 weeks); 1390 mg/kg/day (mouse, strain B6C3F1, females, in feed, site: lung, lesion: alveolar/bronchiolar adenoma + alveolar/bronchiolar carcinoma, dosed 103 weeks, study length 104 weeks); 4280 mg/kg/day (inactive) (rat, strain Fischer 344, females, in feed, site: adrenal gland, lesion: pheochromocytoma, dosed 80 weeks, study length 80 weeks); 247 mg/kg/day (inactive) (rat, strain Fischer 344, females, in feed, site: any site (literature study), lesion: several types, types named in the paper, dosed 103 weeks, study length 116 weeks); 2230 mg/kg/day (rat, strain Fischer 344, males, in feed, site: liver, lesion: hepatocellular adenoma + hepatocellular carcinoma + neoplastic nodule, dosed 103 weeks, study length 116 weeks). Besides, the carcinogen call by setting is: (mouse, strain B6C3F1, males, in feed, site: any site (literature study), lesion: several types, types named in the paper, dosed 103 weeks, study length 104 weeks) “negative (inactive)”; (rat, strain Fischer 344, males, in feed, site: adrenal gland, lesion: pheochromocytoma, dosed 80 weeks, study length 80 weeks) “negative (inactive)”; (rat, strain Fischer 344, males, in feed, site: any site (literature study), lesion: several types, types named in the paper, dosed 103 weeks, study length 116 weeks) “negative (inactive)”.
Take `CC1(C)COC1=O`: the TD50 by setting is: (mouse, strain B6C3F1, females, by gavage, site: any site (literature study), lesion: several types, types named in the paper, dosed 102 weeks, study length 103 weeks) 179 mg/kg/day (inactive); (mouse, strain B6C3F1, females, by gavage, site: lung, lesion: alveolar/bronchiolar adenoma + alveolar/bronchiolar carcinoma, dosed 102 weeks, study length 103 weeks) 482 mg/kg/day; (mouse, strain B6C3F1, males, by gavage, site: lung, lesion: alveolar/bronchiolar adenoma + alveolar/bronchiolar carcinoma, dosed 102 weeks, study length 103 weeks) 435 mg/kg/day; (rat, strain Fischer 344, females, by gavage, site: any site (literature study), lesion: several types, types named in the paper, dosed 103 weeks, study length 105 weeks) 200 mg/kg/day; (rat, strain Fischer 344, females, by gavage, site: stomach, lesion: squamous-cell carcinoma + squamous-cell papilloma, dosed 103 weeks, study length 105 weeks) 333 mg/kg/day; (rat, strain Fischer 344, males, by gavage, site: any site (literature study), lesion: several types, types named in the paper, dosed 103 weeks, study length 105 weeks) 181 mg/kg/day. In addition, the TD50 reads like this: (rat, strain Fischer 344, males, by gavage, site: liver, lesion: hepatocellular adenoma + hepatocellular carcinoma + neoplastic nodule, dosed 103 weeks, study length 105 weeks) 850 mg/kg/day; (rat, strain Fischer 344, males, by gavage, site: stomach, lesion: squamous-cell carcinoma + squamous-cell papilloma, dosed 103 weeks, study length 105 weeks) 154 mg/kg/day; (rat, strain Fischer 344, males, by gavage, site: stomach, lesion: squamous-cell carcinoma, dosed 103 weeks, study length 105 weeks) 532 mg/kg/day. The carcinogen call (mouse, strain B6C3F1, males, by gavage, site: any site (literature study), lesion: several types, types named in the paper, dosed 102 weeks, study length 103 weeks) is “negative (inactive)”.
Consider `O=S(=O)(O)c1cc(S(=O)(=O)O)c2c(N=Nc3ccccc3)c(O)ccc2c1`, for which the carcinogen call reads like this: under setting [1], “negative (inactive)”; (mouse, strain B6C3F1, males, in feed, site: any site (literature study), lesion: several types, types named in the paper, dosed 103 weeks, study length 103 weeks) “negative (inactive)”; (rat, strain Fischer 344, females, in feed, site: any site (literature study), lesion: several types, types named in the paper, dosed 103 weeks, study length 104 weeks) “negative (inactive)”. The TD50 by setting is: (mouse, strain B6C3F1, males, in feed, site: lung, lesion: alveolar/bronchiolar adenoma + alveolar/bronchiolar carcinoma, dosed 103 weeks, study length 103 weeks) 22000 mg/kg/day; (rat, strain Fischer 344, males, in feed, site: any site (literature study), lesion: several types, types named in the paper, dosed 103 weeks, study length 104 weeks) 2710 mg/kg/day; (rat, strain Fischer 344, males, in feed, site: liver, lesion: hepatocellular adenoma + hepatocellular carcinoma + neoplastic nodule, dosed 103 weeks, study length 104 weeks) 620 mg/kg/day; (rat, strain Fischer 344, males, in feed, site: tunica vaginalis, lesion: mesothelioma, NOS + mesothelioma, malignant, dosed 103 weeks, study length 104 weeks) 915 mg/kg/day (inactive).
`CC#N`: the carcinogen call by setting is: (mouse, strain B6C3F1, females, inhaled, site: any site (literature study), lesion: several types, types named in the paper, dosed 103 weeks, study length 105 weeks) “negative (inactive)”; (mouse, strain B6C3F1, males, inhaled, site: any site (literature study), lesion: several types, types named in the paper, dosed 103 weeks, study length 104 weeks) “negative (inactive)”. For the same compound, the TD50 was 90.4 mg/kg/day (mouse, strain B6C3F1, males, inhaled, site: liver, lesion: hepatocellular adenoma + hepatoblastoma + hepatocellular carcinoma, dosed 103 weeks, study length 104 weeks); 318 mg/kg/day (mouse, strain B6C3F1, males, inhaled, site: lung, lesion: alveolar/bronchiolar adenoma + alveolar/bronchiolar carcinoma, dosed 103 weeks, study length 104 weeks); 11.5 mg/kg/day (inactive) (rat, strain Fischer 344, females, inhaled, site: mammary gland, lesion: carcinoma + fibroadenoma, dosed 103 weeks, study length 104 weeks); 16.9 mg/kg/day (rat, strain Fischer 344, males, inhaled, site: adrenal medulla, lesion: pheochromocytoma benign, bilateral + pheochromocytoma, benign, dosed 103 weeks, study length 104 weeks); 14.8 mg/kg/day (rat, strain Fischer 344, males, inhaled, site: adrenal medulla, lesion: pheochromocytoma benign, bilateral + pheochromocytoma, malignant + pheochromocytoma, benign, dosed 103 weeks, study length 104 weeks); 168 mg/kg/day (rat, strain Fischer 344, males, inhaled, site: liver, lesion: hepatocellular adenoma + hepatoblastoma + hepatocellular carcinoma, dosed 103 weeks, study length 104 weeks). In addition, the TD50 was determined as 168 mg/kg/day (rat, strain Fischer 344, males, inhaled, site: liver, lesion: hepatocellular adenoma + hepatocellular carcinoma, dosed 103 weeks, study length 104 weeks); 156 mg/kg/day (rat, strain Fischer 344, males, inhaled, site: liver, lesion: hepatocellular adenoma, dosed 103 weeks, study length 104 weeks); 398 mg/kg/day (rat, strain Fischer 344, males, inhaled, site: liver, lesion: hepatocellular carcinoma, dosed 103 weeks, study length 104 weeks); 81.6 mg/kg/day (rat, strain Fischer 344, males, inhaled, site: skin, lesion: basal-cell adenoma + keratoacanthoma + trichoepithelioma, dosed 103 weeks, study length 104 weeks); 127 mg/kg/day (rat, strain Fischer 344, males, inhaled, site: skin, lesion: keratoacanthoma, dosed 103 weeks, study length 104 weeks).
For the compound `Cc1ccc(C)c(C)c1`, the TD50 is, setting by setting: (rat, strain Sprague-Dawley, females, by gavage, site: any site (literature study), lesion: malignant tumor, dosed 104 weeks, study length 123 weeks) 14300 mg/kg/day; (rat, strain Sprague-Dawley, males, by gavage, site: Zymbal's gland, lesion: carcinoma, dosed 104 weeks, study length 123 weeks) 18000 mg/kg/day; (rat, strain Sprague-Dawley, males, by gavage, site: any site (literature study), lesion: malignant tumor, dosed 104 weeks, study length 123 weeks) 13900 mg/kg/day; (rat, strain Sprague-Dawley, males, by gavage, site: any site (literature study), lesion: several types, types named in the paper, dosed 104 weeks, study length 123 weeks) 1940 mg/kg/day; (rat, strain Sprague-Dawley, males, by gavage, site: ear duct, lesion: carcinoma, dosed 104 weeks, study length 123 weeks) 18300 mg/kg/day; (rat, strain Sprague-Dawley, males, by gavage, site: head, lesion: carcinoma, dosed 104 weeks, study length 123 weeks) 4350 mg/kg/day. The same compound yielded a TD50 (rat, strain Sprague-Dawley, males, by gavage, site: nasal cavity, lesion: esthesioneuroepithelioma, dosed 104 weeks, study length 123 weeks) of 18300 mg/kg/day and a TD50 (rat, strain Sprague-Dawley, males, by gavage, site: oral cavity, lesion: carcinoma, dosed 104 weeks, study length 123 weeks) of 18300 mg/kg/day.

By TD50 is commonly meant the dose at which the toxic effect under study appears in half of the subjects.
